The results in this text go back to patent publication US20230058279A1, “HERBICIDE COMPOSITIONS WITH AUXIN HERBICIDE MONOETHANOLAMINE SALTS WITH IMPROVED PROPERTIES” (MONSANTO TECHNOLOGY LLC, priority 2020, published 2023).

The series can be described thus: Partition coefficient of compound (A) in solvents. It counts as physicochemical. Particulars: HPLC. The method, then: Experimental procedure for the respective solvent: (1) A solution of 10 g of compound (A) is prepared in 90 g of the respective solvent. (2) An aliquot of 10 g of the solution obtained in step (1) is added to 90 g of water in a glass bottle, which is shaken on a mechanical shaker for 4 hours at ambient temperature (approximately 25° C.). (3) The contents of the glass bottle are permitted to phase separate for 4 days at ambient temperature (approximately 25° C.). (4) Subsamples of the resulting oil and water phases are taken and analyzed by HPLC to determine the concentrations of compound (A) in oil (Co) and water phases (Cw) respectively. The subsamples are typically centrifuged before HPLC analysis to remove traces of organic solvent from the water phase.
A Partition Coefficient, analogous to the Octanol-Water Partition Coefficient, P, is calculated as Co/Cw. The Partition Coefficient is conveniently expressed as a logarithm […].
The ratio of determined concentrations of compound (A) in the solvent phase and the water phase typically is very large. […] In other cases, traces of the organic solvent are found in the water phase, even after centrifugation, so that the apparent concentration of oil-soluble herbicide observed in the water phase is misleadingly high. […]

Take `CCOC(=O)COc1ncccc1Oc1cc(-n2c(=O)cc(C(F)(F)F)n(C)c2=O)c(F)cc1Cl` [Cmp. A, ethyl [3-[2-chloro-4-fluoro-5-(1-methyl-6-trifluoromethyl-2,4-dioxo-1,2,3,4-tetrahydropyrimidin-3-yl)phenoxy]-2-pyridyloxy]acetate]: the “compound (A) in the water phase” value is on record as “undetectable” (acetophenone as organic solvent) and “undetectable” (aromatic 200ND as organic solvent).
